Experimental data reported in patent US10508109B2 (priority 2015, dated 2019).
Structures can show the parent of a compound that is named as a salt. Where two headings read alike, the source gives them in different places.

Columns and labels:
[1] = test system: A549; assay: Cell-based assay, anti-proliferative activity (Cell Counting Kit-8, 72 hours); conditions: Homo sapiens, read-out: IC50 (μM) A549
Procedure, shortened: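 Growth read-out after inhibitor treatment of plated cells; potency expressed as IC50.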

[2] = biological target: SUV39H2 (Homo sapiens (Human), UniProt Q9H5I1); conditions: read-out: IC50 (μM) Suv 39H2 assay; enzyme assay
SUV39H2, sequence (Q9H5I1 whole entry): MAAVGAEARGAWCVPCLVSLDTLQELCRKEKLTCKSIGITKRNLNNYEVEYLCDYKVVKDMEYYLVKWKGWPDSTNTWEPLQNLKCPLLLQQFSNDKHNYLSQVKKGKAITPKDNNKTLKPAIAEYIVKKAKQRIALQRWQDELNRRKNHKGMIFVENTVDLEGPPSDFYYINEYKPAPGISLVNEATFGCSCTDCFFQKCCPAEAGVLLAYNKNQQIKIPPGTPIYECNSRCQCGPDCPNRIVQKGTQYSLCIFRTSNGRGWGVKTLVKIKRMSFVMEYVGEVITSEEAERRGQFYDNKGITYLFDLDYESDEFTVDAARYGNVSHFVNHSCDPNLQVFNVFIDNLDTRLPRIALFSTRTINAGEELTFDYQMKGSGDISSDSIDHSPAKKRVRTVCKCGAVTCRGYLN

[3] = test system: PC14; assay: Cell-based assay, anti-proliferative activity (Cell Counting Kit-8, 72 hours); conditions: Homo sapiens, read-out: IC50 (μM) PC14
Procedure, shortened: (§1)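 Seed cells in 96-well plates; add serially diluted inhibitor (1.5625 to 100 micro-M plus vehicle); incubate 72 hours; quantify viable growth by CCK-8 and calculate IC50.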

[4] = test system: CCD-18Co; assay: as above; conditions: Homo sapiens, read-out: IC50 (μM) CCD-18Co
Procedure, shortened: as §1

[5] = test system: HFL1; assay: as above; conditions: Homo sapiens, read-out: IC50 (μM) HFL1
Procedure, shortened: as §1

[6] = test system: HCT-116; assay: as above; conditions: Homo sapiens, read-out: IC50 (μM) HCT-116
Procedure, shortened: as §1

[7] = A549 cells, Cell Counting Kit-8, 72 hours
[8] = PC-14, PC14 cells, Cell Counting Kit-8, 72 hours
[9] = CCD-18Co cells, Cell Counting Kit-8, 72 hours
[10] = HFL1 cells, Cell Counting Kit-8, 72 hours
[11] = HCT-116 cells, Cell Counting Kit-8, 72 hours
[12] = A549 cells, 72 hours, Cell Counting Kit-8
[13] = PC-14, PC14 cells, 72 hours, Cell Counting Kit-8
[14] = CCD-18Co cells, 72 hours, Cell Counting Kit-8
[15] = HFL1 cells, 72 hours, Cell Counting Kit-8
[16] = HCT-116 cells, 72 hours, Cell Counting Kit-8

Compound	IC50 [1, 7] [µM]	IC50 [2] [µM]	IC50 [3, 8] [µM]	IC50 [4, 9] [µM]	IC50 [5, 10] [µM]	IC50 [6, 11] [µM]	IC50 [1, 12] [µM]	IC50 [3, 13] [µM]	IC50 [4, 14] [µM]	IC50 [5, 15] [µM]	IC50 [6, 16] [µM]	IC50 ([1]; A549, 72 h) [µM]	IC50 ([3]; PC-14, 72 h) [µM]	IC50 ([4]; CCD-18Co, 72 h) [µM]	IC50 ([5]; HFL1, 72 h) [µM]	IC50 ([6]; HCT-116, 72 h) [µM]
COc1cc(OCCCN(C)C)c(-c2cn3ccc(N4CCNCC4)cc3n2)cc1Cl [Example 139, 3-{4-chloro-5-methoxy-2-[7-(piperazin-1-yl)imidazo[1,2-a]pyridin-2-yl]phenoxy}-N,N-dimethylpropan-1-amine]	1.7	0.025	2.1	2.5	1.6	2.4										
COC(=O)CCCN1CCN(c2ccn3cc(-c4cc(Cl)c(OC)cc4OC)nc3c2)CC1 [Example 237, methyl 4-(4-(2-(5-chloro-2,4-dimethoxyphenyl)imidazo[1,2-a]pyridine-7-yl)piperazin-1-yl)butanoate]		0.0113					10	10	10	10	10					
COc1cc(OC)c(-c2cn3ccc(N4CCN(S(=O)(=O)C5CC5)CC4)nc3n2)cc1Cl [Example 146, 2-(5-chloro-2,4-dimethoxyphenyl)-7-[4-(cyclopropylsulfonyl)piperazin-1-yl]imidazo[1,2-a]pyrimidine]	0.49	0.0247	0.24	4.2	1.4	0.69										
COc1cc(OC)c(-c2cn3ccc(N4CCCC4)cc3n2)cc1C#N [Example 49, 2,4-dimethoxy-5-[7-(pyrrolidin-1-yl)imidazo[1,2-a]pyridin-2-yl]benzonitrile]		0.00371										1.5	1.3	1.1	0.8	1.3
COc1cc(OC)c(-c2cn3ccc(N4CCN(c5cccnc5)CC4)cc3n2)cc1Cl [Example 296, 2-(5-chloro-2,4-dimethoxyphenyl)-7-(4-(pyridin-3-yl)piperazin-1-yl)imidazo[1,2-a]pyridine]		0.013					0.66	0.64	0.79	0.73	0.56					
COc1cc(OC)c(-c2cn3ccc(N4CCN(S(=O)(=O)C(C)C)CC4)nc3n2)cc1Cl [Example 205, 2-(5-chloro-2,4-dimethoxyphenyl)-7-[4-(isopropylsulfonyl)piperazin-1-yl]imidazo[1,2-a]pyrimidine]	1.2	0.0291	0.62	3.1	2	1.9										
CCS(=O)(=O)N1CCN(c2ccn3cc(-c4cc(Cl)c(OC)cc4OC)nc3n2)CC1 [Example 190, 2-(5-chloro-2,4-dimethoxyphenyl)-7-[4-(ethylsulfonyl)piperazin-1-yl]imidazo[1,2-a]pyrimidine]	1.8	0.0306	1	4.5	2.7	2.3										
COc1cc(OC)c(-c2cn3ccc(NC(=O)[C@@H]4CCCN4C)cc3n2)cc1Cl [Example 263, (S)—N-(2-(5-chloro-2,4-dimethoxyphenyl)imidazo[1,2-a]pyridin-7-yl)-1-methylpyrrolidine-2-carboxamide]		0.065					1.8	1.7	1.4	1.8	0.99					
COC(=O)N1CCN(c2ccn3cc(-c4cc(Cl)c(OC)cc4OC)nc3c2)CC1 [Example 99, methyl 4-[2-(5-chloro-2,4-dimethoxyphenyl)imidazo[1,2-a]pyridine-7-yl]piperazine-1-carboxylate]	1.5	0.00606	1.9	1.6	1.8	1.5										
COc1cc(OC)c(-c2cn3ccc(N4CCN(CCC(=O)NCCN(C)C)CC4)cc3n2)cc1Cl [Example 158, 3-(4-(2-(5-chloro-2,4-dimethoxyphenyl)imidazo[1,2-a]pyridin-7-yl)piperazin-1-yl)-N-(2-(dimethylamino)ethyl)propanamide]	9.3	0.00353	9.8	14	7.7	9.4										
COc1cc(OC)c(-c2cn3ccc(N4CCC(NS(=O)(=O)C5CC5)CC4)cc3n2)cc1Cl [Example 126, N-{1-[2-(5-chloro-2,4-dimethoxyphenyl)imidazo[1,2-a]pyridin-7-yl]piperidin-4-yl}cyclopropanesulfonamide]	2.1	0.014	3.1	1.8	1.4	1.9										
CNc1ccn2cc(-c3cc(Br)c(OC)cc3OC)nc2c1 [Example 11, 2-(5-bromo-2,4-dimethoxyphenyl)-N-methylimidazo[1,2-a]pyridin-7-amine hydrobromide]		0.0094										1.4	0.88	2	1.7	1.1
CCS(=O)(=O)N1CCCN(c2ccn3cc(-c4cc(Cl)c(OC)cc4OC)nc3c2)CC1 [Example 206, 2-(5-chloro-2,4-dimethoxyphenyl)-7-[4-(ethylsulfonyl)-1,4-diazepan-1-yl]imidazo[1,2-a]pyridine]	2.6	0.00561	1.6	2.9	2.3	3.3										
COc1cc(OC)c(-c2cn3ccc(N(C)C)cc3n2)cc1Cl [Example 22, 2-(5-chloro-2,4-dimethoxyphenyl)-N,N-dimethylimidazo[1,2-a]pyridin-7-amine hydrobromide]	1.6	0.00515	1.6	3.6	1.7	3.3										
COc1cc(OC)c(-c2cn3cc(NCCN)c(C)cc3n2)cc1Cl [Example 78, N^1-(2-(5-chloro-2,4-dimethoxyphenyl)-7-methylimidazo[1,2-a]pyridin-6-yl)ethane-1,2-diamine]		0.00431										6.3	6.1	5.7	2.7	5.6
COc1cc(OC)c(-c2cn3ccc(N[C@H]4CC[C@H](Nc5ccccn5)CC4)cc3n2)cc1Cl [Example 287, N^1-(2-(5-chloro-2,4-dimethoxyphenyl)imidazo[1,2-a]pyridin-7-yl)-N^4-(pyridin-2-yl)-trans-cyclohexane-1,4-diamine]		0.0327					0.8	0.94	0.81	0.78	0.91					
COc1cc(OC)c(-c2cn3ccc(C4CCC(N)CC4)cc3n2)cc1Cl (stereo not drawn) [Example 125, 4-(2-(5-chloro-2,4-dimethoxyphenyl)imidazo[1,2-a]pyridin-7-yl)-cyclohexanamine]	2.3	0.0651	5	2.9	2.7	2.7										
COc1cc(OC)c(-c2cn3ccc(N4CC[C@H](NCc5ccc(F)cc5)C4)cc3n2)cc1Cl [Example 302, (S)-1-(2-(5-chloro-2,4-dimethoxyphenyl)imidazo[1,2-a]pyridin-7-yl)-N-(4-fluorobenzyl)pyrrolidin-3-amine]		0.0153					1.5	1.4	1.1	0.72	0.92					
